The values that follow come from the OligoGym collection.

Oligonucleotides are written 5' to 3', each unit as a sugar letter and its base; * is a phosphorothioate linkage, no mark a phosphodiester; rarer units and linkages stand in square brackets, end groups in braces. Plain capitals give the bases only. d = 2'-deoxy (DNA); r = 2'-OH (RNA)
Also: test concentration or dose not given here.

The target in this series is MRFAP1. Kind of series: reporter assay of Huesken 2005. The conditions noted are these: siRNA. For orientation: A reporter such as luciferase makes a cellular process visible.
For the substance “sense rGrUrGrUrGrArGrArCrCrArArArGrGrArGrGrAdTdT / antisense rUrCrCrUrCrCrUrUrUrGrGrUrCrUrCrArCrArCdAdG”, the normalised inhibition (eCFP-eYFP dual reporter) was found to be 98%.
To “sense rCrArCrUrGrArGrArCrUrUrGrGrArGrUrUrGrGdTdT / antisense rCrCrArArCrUrCrCrArArGrUrCrUrCrArGrUrGdTdC” belongs 77.6%.
Next, “sense rGrArGrGrUrCrUrUrGrUrUrCrGrUrCrUrGrUrAdTdT / antisense rUrArCrArGrArCrGrArArCrArArGrArCrCrUrCdAdT”: 72.7%.
With “sense rArArArGrCrArGrCrGrGrArGrArUrGrCrGrGrCdTdT / antisense rGrCrCrGrCrArUrCrUrCrCrGrCrUrGrCrUrUrUdGdC”, the normalised inhibition (eCFP-eYFP dual reporter) was determined as 35.6%.
As to “sense rCrArCrCrCrUrGrGrArGrArArGrCrUrGrArArAdTdT / antisense rUrUrUrCrArGrCrUrUrCrUrCrCrArGrGrGrUrGdTdC”, the normalised inhibition (eCFP-eYFP dual reporter) came out at 66.7%.
Next, “sense rUrCrUrUrUrUrCrCrCrCrUrCrUrGrUrCrUrUrCdTdT / antisense rGrArArGrArCrArGrArGrGrGrGrArArArArGrAdAdA”: 35.3%.
“sense rGrArGrCrCrGrUrCrCrGrCrGrGrUrUrUrCrCrAdTdT / antisense rUrGrGrArArArCrCrGrCrGrGrArCrGrGrCrUrCdAdC”: the normalised inhibition (eCFP-eYFP dual reporter) was found to be 70.1%.
To “sense rCrUrCrArArCrCrArCrCrUrGrCrArGrGrGrCrGdTdT / antisense rCrGrCrCrCrUrGrCrArGrGrUrGrGrUrUrGrArGdAdG” belongs 43.2%; to “sense rCrGrGrCrGrGrArArGrUrUrUrUrGrArArGrArCdTdT / antisense rGrUrCrUrUrCrArArArArCrUrUrCrCrGrCrCrGdCdT”, 94.8%; to “sense rArArArCrUrUrCrArArGrGrArArGrArGrGrCrGdTdT / antisense rCrGrCrCrUrCrUrUrCrCrUrUrGrArArGrUrUrUdTdG”, 66.3%.
To “sense rCrArArGrArCrGrCrArGrGrUrArGrArGrGrCrCdTdT / antisense rGrGrCrCrUrCrUrArCrCrUrGrCrGrUrCrUrUrGdAdT” belongs 73.2%.
As to “sense rCrGrGrArArCrCrCrGrGrUrArUrGrGrGrArGrAdTdT / antisense rUrCrUrCrCrCrArUrArCrCrGrGrGrUrUrCrCrGdTdT”, the normalised inhibition (eCFP-eYFP dual reporter) came out at 49.8%.
For “sense rCrUrGrCrUrGrCrCrCrGrUrCrArUrCrCrArCrGdTdT / antisense rCrGrUrGrGrArUrGrArCrGrGrGrCrArGrCrArGdAdA”, the normalised inhibition (eCFP-eYFP dual reporter) stood at 39.5%.
Next, “sense rGrCrUrGrArArArCrCrArGrArGrArGrCrCrUrUdTdT / antisense rArArGrGrCrUrCrUrCrUrGrGrUrUrUrCrArGrCdTdT”: 102%; “sense rGrArCrGrCrArGrUrGrGrArGrCrUrGrGrCrGrGdTdT / antisense rCrCrGrCrCrArGrCrUrCrCrArCrUrGrCrGrUrCdCdA”: 65.5%.
To “sense rCrUrArUrCrUrArUrUrArUrArArCrCrUrGrCrCdTdT / antisense rGrGrCrArGrGrUrUrArUrArArUrArGrArUrArGdTdG” belongs 90.4%; to “sense rUrGrArUrGrArCrCrUrGrGrGrArGrArArGrGrGdTdT / antisense rCrCrCrUrUrCrUrCrCrCrArGrGrUrCrArUrCrAdGdT”, 33.2%.
To “sense rCrGrGrUrArUrGrGrGrArGrArUrGrArGrGrUrCdTdT / antisense rGrArCrCrUrCrArUrCrUrCrCrCrArUrArCrCrGdGdG” belongs 84.8%; to “sense rArGrUrUrUrCrUrGrCrUrGrCrCrCrGrUrCrArUdTdT / antisense rArUrGrArCrGrGrGrCrArGrCrArGrArArArCrUdGdC”, 66.2%; to “sense rGrGrUrArUrCrCrCrCrArUrArUrArUrUrUrGrAdTdT / antisense rUrCrArArArUrArUrArUrGrGrGrGrArUrArCrCdAdA”, 76.3%.
Take “sense rUrCrUrGrCrUrGrCrCrCrGrUrCrArUrCrCrArCdTdT / antisense rGrUrGrGrArUrGrArCrGrGrGrCrArGrCrArGrAdAdA”: the normalised inhibition (eCFP-eYFP dual reporter) is 35.3%.
Next, “sense rGrGrGrCrGrGrCrGrCrCrGrArGrCrCrCrCrGrCdTdT / antisense rGrCrGrGrGrGrCrUrCrGrGrCrGrCrCrGrCrCrCdGdC”: 74.9%; “sense rCrArUrGrCrArGrCrArArUrGrGrCrArGrArArGdTdT / antisense rCrUrUrCrUrGrCrCrArUrUrGrCrUrGrCrArUrGdGdA”: 79.1%.
Next, “sense rGrArGrGrArCrUrCrCrArUrGrCrArGrCrArArUdTdT / antisense rArUrUrGrCrUrGrCrArUrGrGrArGrUrCrCrUrCdTdT”: 44.8%; “sense rUrArCrGrUrUrUrCrUrGrCrUrArUrGrGrUrCrUdTdT / antisense rArGrArCrCrArUrArGrCrArGrArArArCrGrUrAdGdT”: 62.7%; “sense rArCrCrUrGrArUrArGrCrUrCrCrCrUrGrArArCdTdT / antisense rGrUrUrCrArGrGrGrArGrCrUrArUrCrArGrGrUdCdA”: 68.5%.
Next, “sense rUrUrCrUrCrArCrUrGrArCrArCrUrArCrGrUrUdTdT / antisense rArArCrGrUrArGrUrGrUrCrArGrUrGrArGrArAdCdA”: 72.2%.
“sense rCrCrCrArGrGrGrCrGrGrArGrArArGrGrCrCrGdTdT / antisense rCrGrGrCrCrUrUrCrUrCrCrGrCrCrCrUrGrGrGdGdC”: the normalised inhibition (eCFP-eYFP dual reporter) is 65.6%.
To “sense rGrGrCrCrUrUrArCrArCrGrGrCrUrArGrGrArCdTdT / antisense rGrUrCrCrUrArGrCrCrGrUrGrUrArArGrGrCrCdCdA” belongs 60%.
“sense rArCrCrUrGrArUrArArGrCrArUrUrUrGrArGrGdTdT / antisense rCrCrUrCrArArArUrGrCrUrUrArUrCrArGrGrUdCdT”: the normalised inhibition (eCFP-eYFP dual reporter) came to 46.8%.
To “sense rArCrGrArCrCrUrCrGrArUrArUrGrArGrUrUrUdTdT / antisense rArArArCrUrCrArUrArUrCrGrArGrGrUrCrGrUdCdA” belongs 70%.
As for “sense rUrGrUrUrCrGrUrCrUrGrUrArCrArArGrUrUrGdTdT / antisense rCrArArCrUrUrGrUrArCrArGrArCrGrArArCrAdAdG”, the normalised inhibition (eCFP-eYFP dual reporter) is 84.8%.
On to “sense rArCrUrUrCrArArGrGrArArGrArGrGrCrGrUrCdTdT / antisense rGrArCrGrCrCrUrCrUrUrCrCrUrUrGrArArGrUdTdT”, for which the normalised inhibition (eCFP-eYFP dual reporter) came to 82.5%.
Turning to “sense rArArGrGrCrCrGrArCrGrArGrArArGrGrCrGrCdTdT / antisense rGrCrGrCrCrUrUrCrUrCrGrUrCrGrGrCrCrUrUdCdT”, the normalised inhibition (eCFP-eYFP dual reporter) was 63.1%.
Next, “sense rGrGrGrUrGrArCrCrUrGrArUrArGrCrUrCrCrCdTdT / antisense rGrGrGrArGrCrUrArUrCrArGrGrUrCrArCrCrCdAdA”: 87.1%.
Next, “sense rGrGrCrArArGrCrUrGrUrGrGrGrArGrArUrGrGdTdT / antisense rCrCrArUrCrUrCrCrCrArCrArGrCrUrUrGrCrCdCdC”: 81%; “sense rCrCrArGrArGrArGrCrCrUrUrUrGrUrUrUrUrCdTdT / antisense rGrArArArArCrArArArGrGrCrUrCrUrCrUrGrGdTdT”: 89.6%.
Next, “sense rUrArGrGrArCrUrGrArUrGrArCrCrUrGrGrGrAdTdT / antisense rUrCrCrCrArGrGrUrCrArUrCrArGrUrCrCrUrAdGdC”: 70.4%; “sense rCrCrUrGrCrArGrGrGrCrGrCrGrGrGrCrGrGrCdTdT / antisense rGrCrCrGrCrCrCrGrCrGrCrCrCrUrGrCrArGrGdTdG”: 60.9%.
For “sense rGrGrUrGrCrArGrCrUrCrGrUrGrCrGrGrCrGrGdTdT / antisense rCrCrGrCrCrGrCrArCrGrArGrCrUrGrCrArCrCdAdG”, the normalised inhibition (eCFP-eYFP dual reporter) turned out to be 88.4%.
Next, “sense rUrCrGrUrGrCrArGrArCrArArGrCrArArArGrCdTdT / antisense rGrCrUrUrUrGrCrUrUrGrUrCrUrGrCrArCrGrAdCdA”: 67.6%; “sense rGrArUrCrArArGrArCrGrCrArGrGrUrArGrArGdTdT / antisense rCrUrCrUrArCrCrUrGrCrGrUrCrUrUrGrArUrCdTdG”: 72%.
To “sense rGrGrArGrUrUrGrGrArGrCrUrCrArCrCrGrCrCdTdT / antisense rGrGrCrGrGrUrGrArGrCrUrCrCrArArCrUrCrCdAdA” belongs 50%; to “sense rGrGrArGrArUrGrGrCrGrArArGrArUrGrGrCrCdTdT / antisense rGrGrCrCrArUrCrUrUrCrGrCrCrArUrCrUrCrCdTdG”, 72.4%.
Regarding “sense rUrCrGrCrUrGrArCrGrCrGrCrGrArGrCrGrCrGdTdT / antisense rCrGrCrGrCrUrCrGrCrGrCrGrUrCrArGrCrGrAdCdG”, the normalised inhibition (eCFP-eYFP dual reporter) was determined as 14%.
To “sense rCrArCrUrArCrGrUrUrUrCrUrGrCrUrArUrGrGdTdT / antisense rCrCrArUrArGrCrArGrArArArCrGrUrArGrUrGdTdC” belongs 58%; to “sense rCrUrCrUrGrArGrGrArGrArGrCrGrCrUrCrUrCdTdT / antisense rGrArGrArGrCrGrCrUrCrUrCrCrUrCrArGrArGdGdC”, 48.8%; to “sense rGrArArArCrCrArGrArGrArGrCrCrUrUrUrGrUdTdT / antisense rArCrArArArGrGrCrUrCrUrCrUrGrGrUrUrUrCdAdG”, 86%.
On to “sense rCrCrGrGrGrGrCrArArGrCrUrGrUrGrGrGrArGdTdT / antisense rCrUrCrCrCrArCrArGrCrUrUrGrCrCrCrCrGrGdTdT”, for which the normalised inhibition (eCFP-eYFP dual reporter) came out at 44.9%.
